First: CC(C)(C)c1cc([N+](=O)[O-])cc(C(C)(C)C)c1O
Second: CC(C)(C)c1cc(CN2CCN(c3ccc([N+](=O)[O-])cc3)CC2)cc(C(C)(C)C)c1O
The melting point of the first is lower: 167 to 168 °C for the first, 178 °C for the second.

First: CC(=O)OC1CC(=O)C2(C)CCC3C(CCC4CC(=O)CC(C)(O)C43C)C12 (stereo not given)
Second: CC12CCC(C1)C1(C)Oc3ccc(C(=O)/C=C/c4cc(C(=O)O)cs4)cc3C21C (stereo not given)
The melting point of the first is lower: 170 °C for the first, 226 to 228 °C for the second.

First: CC1(C(=O)c2ccc(C(=O)O)cc2)CC1
Second: COc1ccc(C(=C/C=C/C(=O)O)c2ccc(OC)cc2)cc1
The melting point of the first is lower: 136 to 137 °C for the first, 187 to 189 °C for the second.

First: COC(=O)[C@@H](Cc1ccccc1)NC(=O)OCc1cc2cc(-c3ccccc3)ccc2o1
Second: CC(=O)Oc1ccccc1CC1c2ccccc2Oc2ccccc21
The melting point of the first is higher: 85 to 86 °C for the first, 77 to 79 °C for the second.

First: CC(C)C1COC(=O)N1C(=O)CCCCOCc1ccccc1 (stereo not given)
Second: CC(C)(C)OC(=O)C1CCCN(C(=O)OCc2ccccc2)N1C(=O)C(Br)CCBr (stereo not given)
The melting point of the first is higher: 133 °C for the first, 81 to 82 °C for the second.

First: CC(C)(C)C1(O)OC(=O)c2ccc(Cl)cc21 (stereo not given)
Second: COc1ccc(Cl)cc1C(=O)c1cc(C(F)(F)F)ccc1NC(=O)OC(C)(C)C
The melting point of the first is higher: 160 to 161 °C for the first, 148 to 150 °C for the second.

Compared with `Cc1ccccc1-c1c(NC(=O)C=Cc2ccc(O)c(O)c2)c(=O)oc2cc3c(cc12)CCC3`, `CNC(=O)c1ccc(C=CC(=O)Nc2cccc(-c3ccc(C)c(CO)c3C)c2)cc1` is lower in melting point: 295 to 297 °C for the first, 272 to 277 °C for the second.

Compared with `Cc1oc(-c2ccco2)nc1CCOc1ccc(C#N)cc1`, `CC(=O)c1ccc(CCOc2ccc(CC3SC(=O)NC3=O)cc2)nc1` (stereo not given) is higher in melting point: 105 to 108 °C for the first, 114 to 115 °C for the second.

Compared with `CC(=S)NC[C@H]1CN(c2ccc(N3CCC(=C(C)C#N)CC3)c(F)c2)C(=O)O1`, `COc1ccc(Sc2ccc3c(c2)CC[C@H]2NC(=O)CC[C@]32C)cc1` is higher in melting point: 171 to 172 °C for the first, 194 to 196 °C for the second.

First: O=c1ccc(C(F)(F)F)cn1Cc1ccc([N+](=O)[O-])cc1
Second: O=C(c1ccc([N+](=O)[O-])cc1)c1ccc2c(n1)C(O)CCCN2 (stereo not given)
The melting point of the first is lower: 121 to 123 °C for the first, 182 to 185 °C for the second.

First: CCN(CC)CCC1CCCCN1CCNC(=O)N1c2ccccc2C(=O)Nc2cccnc21 (stereo not given)
Second: CC(C)(C)OC(=O)NCc1ccc(OCCC2Oc3ccccc3N(Cc3ccccc3Cl)C2=O)cc1 (stereo not given)
The melting point of the first is higher: 161 to 162 °C for the first, 121 to 123 °C for the second.

First: Cc1ccc(NC(=O)N(C)Cc2cccc3c2CN(C2CCC(=O)NC2=O)C3=O)cc1Cl (stereo not given)
Second: COCCNC(=O)c1cc(F)cc(-c2cccc3cc(Cc4ccc(F)c(Cl)c4)sc23)c1
The melting point of the first is higher: 248 to 250 °C for the first, 108 to 109 °C for the second.

First: CC1COC(C(=O)C(C)(C)C)C(C(=O)C(C)(C)C)O1 (stereo not given)
Second: CCS(=O)(=O)N1C[C@H](C)N(C(=O)[C@@](C)(O)C(F)(F)F)C[C@H]1C
The melting point of the first is lower: 123 °C for the first, 142 to 144 °C for the second.

Compared with `CN(C)c1ncnc2c1ncn2Cc1c(F)cccc1Cl`, `O=C(c1ccccc1F)c1ccc(O)c(Cl)c1Cl` is lower in melting point: 134 to 135 °C for the first, 128 to 131 °C for the second.

First: COc1cccc(Cl)c1C1C(=O)NC(C)(C(C)C)C1=O (stereo not given)
Second: COc1cc(CCNC(=O)C(NC(=O)OC(C)(C)C)C(C)C)ccc1OCC#Cc1ccc(Cl)cc1 (stereo not given)
The melting point of the first is higher: 172 to 174 °C for the first, 141 to 142 °C for the second.

First: O=C(c1ccc(Oc2ccccc2)cc1)c1ccc(C(=O)c2ccc(Oc3ccccc3)cc2)cc1
Second: O=C(Oc1ccccc1)OC1c2ccccc2C(=O)N1c1ccc2ccc(Cl)nc2n1 (stereo not given)
The melting point of the first is lower: 212 to 214 °C for the first, 235 °C for the second.

First: CCOc1ccc(C2C(=O)Oc3ccc(C)cc32)cc1 (stereo not given)
Second: Cc1c(N)cccc1C(=O)c1ccc(Cl)cc1
The melting point of the first is higher: 82 to 86 °C for the first, 65 °C for the second.

Compared with `CCCc1cc(Cl)c2oc(C(=O)c3ccc(Cl)cc3)c(C)c2c1OC(=O)c1ccc(Cl)cc1`, `COCCOc1ccc(-c2sc(N3C(=O)c4ccccc4C3=O)c(C(=O)c3ccc(Cl)cc3)c2CBr)cc1` is lower in melting point: 177 to 182 °C for the first, 142 to 145 °C for the second.

First: CCCCCCCCCCCCNC(=O)c1cc(-c2cccc(OC)c2)c(OCC(=O)O)c(-c2cccc(OC)c2)c1
Second: COCCc1nc2c(N)nc3ccccc3c2n1CCCCNC(=O)c1cnc2ccccc2c1
The melting point of the first is lower: 57 to 58 °C for the first, 114 to 116 °C for the second.

Compared with `CCOC(=O)C=CN1C(C)(C)CC(OC(=O)CCl)CC1(C)C`, `CCC(C)(NC(=O)c1cc(Cl)cc(Cl)c1)C(=O)CCl` (stereo not given) is higher in melting point: 80 to 82 °C for the first, 159 to 161 °C for the second.

Compared with `Cc1cc2c(cc1C=O)OCO2`, `CC1=Cc2cc(Br)cc(S(N)(=O)=O)c2OS1(=O)=O` is higher in melting point: 84 to 86 °C for the first, 243 to 245 °C for the second.

First: COC(=O)c1cccc(CN2C(=O)N(c3ccccc3Br)Cc3cnc(Nc4ccccc4)nc32)c1
Second: COc1ccc(N(C(=O)CN2C(=O)C(C)(Cc3n[nH]c4ccccc34)C(=O)N(c3cccnc3)c3ccccc32)C(C)C)cc1 (stereo not given)
The melting point of the first is lower: 79 to 82 °C for the first, 161 to 165 °C for the second.

First: O=C(Nc1c[nH]nc1C(=O)NC1CCCC1)c1ccccn1
Second: Cc1ccc(N2C(=O)c3nccnc3C2OC(=O)N2CCNCC2)nc1 (stereo not given)
The melting point of the first is higher: 240 to 241 °C for the first, 182 °C for the second.

First: Cn1c(C(F)(F)F)ccc(-c2cc(S(=O)(=O)Cl)c(Cl)cc2F)c1=O
Second: CCOC(=O)c1c(NCC(=O)c2ccc(C(F)(F)F)cc2)c2c(Cl)cc(Cl)cc2n1C(=O)OC(C)(C)C
The melting point of the first is lower: 77 to 78 °C for the first, 159 to 160 °C for the second.

First: COC(=O)c1cc([N+](=O)[O-])c(C(F)(F)F)cc1N
Second: O=C(CCl)c1ccc2c(c1)CN(C(=O)C(F)(F)F)CC2
The melting point of the first is higher: 175 to 177 °C for the first, 120 to 122 °C for the second.

`CCNc1ccc(-c2ccnc3c(C(=O)c4cccs4)cnn23)cc1` and `COc1ncccc1-c1cnn2ccc(N3CCN(C(=O)OC(C)C)CC3)nc12` cannot be ordered by melting point: 130 to 132 °C for the first, 131 to 132 °C for the second.

`COc1ccc([N+](=O)[O-])c2c1oc1ccccc12` and `CC(=O)Nc1c(C(O)(C(F)(F)F)C(F)(F)F)ccc2ccccc12` fall in the same range of melting point: 155 to 156 °C for the first, 155 to 156 °C for the second.

First: C=CCOc1ccc2nc(S(N)(=O)=O)sc2c1
Second: C=CC(=O)OCCS(=O)(=O)c1ccc(O)cc1
The melting point of the first is higher: 184 to 187 °C for the first, 91 to 92 °C for the second.

First: N#Cc1c(F)ccc(F)c1N
Second: CS(=O)(=O)Nc1cc2c(cc1Oc1ccc(F)cc1F)CCC2
The melting point of the first is higher: 90 to 92 °C for the first, 85 to 87 °C for the second.

Compared with `O=S1(=O)CCN2C=CC=C(c3ccc(OC4CCCC4)cc3)C2=N1`, `N#CCc1ccc(-c2coc3cc(O)c(O)cc3c2=O)cc1` is higher in melting point: 254 to 256 °C for the first, 258 to 260 °C for the second.

First: Cc1ccc(N2C(=O)C(O)=C(C(=O)c3ccc(C(C)C)cc3)C2c2ccc(C(C)C)cc2)cn1 (stereo not given)
Second: CCCc1c(OCCCOc2ccc(C(=O)O)cc2Br)ccc(C(C)=O)c1OC(=O)CC
The melting point of the first is higher: 252 to 254 °C for the first, 136 to 137 °C for the second.

Compared with `CC(C)CCCC(O)(Cn1cncn1)C(C)(C)C` (stereo not given), `CC(C)(CO)OCc1nn(Cc2ccccc2)c2ccccc12` is higher in melting point: 45 to 48 °C for the first, 52 to 53 °C for the second.

First: C[Si](C)(C)Nc1ccn([Si](C)(C)C)c(=O)n1
Second: Cc1nc2c(Cl)cnn2c(Cl)c1CCCl
The melting point of the first is higher: 252 to 256 °C for the first, 115 to 117 °C for the second.

Compared with `O=C(O)CSC(c1ccccc1)c1ccccc1`, `CC(c1cccc(O)c1)N(C)C` (stereo not given) is lower in melting point: 126 to 129 °C for the first, 85 to 86 °C for the second.

Compared with `COc1ccccc1-n1c(=O)[nH]c2c(C(N)=O)nc(-c3ccc4nc(C(F)(F)F)[nH]c4c3)nc21`, `CCCCCCCCCCOCCCCCCCSCCCO` is lower in melting point: 220 to 222 °C for the first, 28 to 32 °C for the second.
